According to US6562833B1 (priority 1998, dated 2003):

What was measured:
Format in all cases: in vivo
[1] = tested on: Puccinia recondita; test: Comparative Experiment 2 - curative activity against Puccinia recondita on wheat (wheat leaf rust); settings: potted wheat seedlings c.v. Kanzler, aqueous 250 ppm preparation sprayed the day after inoculation, assessed after 7 days, untreated plants 100% infected
Source text: (§1) The active ingredients were formulated separately or jointly as a 10% emulsion in a mixture of 70% by weight of cyclohexanone, 20% by weight of Nekanil® LN (Lutensol® AP6, wetting agent having emulsifying and dispersant action based on ethoxylated alkylphenols) and 10% by weight of Wettol® EM (nonionic emulsifier based on ethoxylated castor oil) and diluted with water to give the desired concentration.
Leaves of potted wheat seedlings c.v. “Kanzler” were dusted with spores of wheat leaf rust (Puccinia recondita). Thereafter, the pots were kept in a chamber of high atmospheric humidity (90 to 95%), at 20 to 22° C. for 24 hours. During this time, the spores germinated and the germ tubes penetrated into the leaf tissue. The next day, the infected plants were sprayed to runoff point with an aqueous 250 ppm preparation of active compound which had been made up from a stock solution consisting of 10% of active compound, 63% of cyclohexanone and 27% of emulsifier. After the spraycoating had dried on, the test plants were cultivated in a greenhouse at 20-22° C. and 65-70% relative atmospheric humidity for 7 days. The extent of the rust fungus development on the leaves was then determined.

[2] = tested on: Plasmopara viticola; test: Comparative Experiment 1 - activity against Plasmopara viticola on grapevine leaves (persistency, 500 ppm); settings: potted grapevines c.v. Müller-Thurgau; aqueous 500 ppm preparation sprayed to runoff; inoculated 7 days after treatment; untreated plants 85% infected
Source text: as §1
Leaves of potted grapevines c.v. “Müller-Thurgau” were sprayed to runoff point with an aqueous 500 ppm preparation of active compound which had been made up from a stock solution comprising 10% of active compound, 63% of cyclohexanone and 27% of emulsifier. To assess the persistency of the substances, the plants were kept for 7 days in a greenhouse after the spray-coating had dried off. Only then were the leaves inoculated with an aqueous zoospore suspension of Plasmopara viticola. The grapevines were then initially kept in a water vapor-saturated chamber at 24° C. for 48 hours and then in a greenhouse at 20-30° C. for 5 days. After this period of time, the plants were once more kept in a humid chamber for 16 hours to promote sporangiophore eruption. The extent of the infection on the undersides of the leaves was then determined visually.

[3] = tested on: Pyricularia oryzae; settings: potted rice seedlings c.v. TaiNong 67; protective, aqueous 250 ppm preparation; inoculated the next day; assessed after 6 days; untreated plants 90% infected
[4] = tested on: Plasmopara viticola; test: Comparative Experiment 4 - activity against Plasmopara viticola on grapevine leaves (persistency, 250 ppm); settings: potted grapevines c.v. Müller-Thurgau; aqueous 250 ppm preparation sprayed to runoff; inoculated 7 days after treatment; untreated plants 85% infected
Source text: as §1
Leaves of potted grapevines c.v. “Müller-Thurgau” were sprayed to runoff point with an aqueous 250 ppm preparation of active compound which had been made up from a stock solution comprising 10% of active compound, 63% of cyclohexanone and 27% of emulsifier. To assess the persistency of the substances, the plants were kept for 7 days in a greenhouse after the spray-coating had dried off. Only then were the leaves inoculated with an aqueous zoospore suspension of Plasmopara viticola. The grapevines were then initially kept in a water vapor-saturated chamber at 24° C. for 48 hours and then in a greenhouse at 20-30° C. for 5 days. After this period of time, the plants were once more kept in a humid chamber for 16 hours to promote sporangiophore eruption. The extent of the infection on the undersides of the leaves was then determined visually.

Structure (SMILES) | infection (extent of the rust fungus development on the leaves) [1] | infection (extent of the infection on the undersides of the leaves, determined visually) [2] | infection (extent of the development of the disease on the leaves, determined visually) [3] | infection (extent of the infection on the undersides of the leaves, determined visually) [4]
Cc1nc(Nc2ccccc2)nc(C#N)c1C [I.9, 4-Cyano-5,6-dimethyl-2-(phenylamino)pyrimidine] | 30% | 5% |  | 
Cc1nc(Nc2ccccc2)nc(C(F)(F)F)c1C [I.18] |  |  | 15% | 
CON=Cc1nc(Nc2ccccc2)nc(C)c1C [I.62, 5,6-Dimethyl-4-(N-methoxyimino)methyl-2-(N-phenylamino)pyrimidine] |  |  |  | 10%
Cc1cc(C#N)nc(Nc2ccccc2)n1 [active compound A] | 100% | 50% |  | 
Cc1cc(C(F)(F)F)nc(Nc2ccccc2)n1 [active compound B] |  |  | 80% | 
CON=Cc1cc(C)nc(Nc2ccccc2)n1 [active compound C] |  |  |  | 60%
